Results published in patent US9145415B2, “Nitrogen-containing heterocyclic compound or salt thereof” (FUJIFILM Corporation, priority 2012, dated 2015).
pIC50: −log10 of the molar value. Where two headings read alike, the source gives them in different places.

Legend:
[1] = target: T1, human FLT3 protein (FLT3 (WT)) (Homo sapiens, UniProt P36888); experiment: FLT3 inhibition test (FLT3 enzyme inhibition, time-resolved fluorescence of substrate peptide phosphorylation); type: biochemical; conditions: read-out: FLT3 (WT) enzyme inhibition activity
T1 construct: human FLT3 protein (intracellular region, 564 to 993 aa); GST; purchased Carna Biosciences; host or cells: baculovirus expression system
T1 sequence (P36888 564-993): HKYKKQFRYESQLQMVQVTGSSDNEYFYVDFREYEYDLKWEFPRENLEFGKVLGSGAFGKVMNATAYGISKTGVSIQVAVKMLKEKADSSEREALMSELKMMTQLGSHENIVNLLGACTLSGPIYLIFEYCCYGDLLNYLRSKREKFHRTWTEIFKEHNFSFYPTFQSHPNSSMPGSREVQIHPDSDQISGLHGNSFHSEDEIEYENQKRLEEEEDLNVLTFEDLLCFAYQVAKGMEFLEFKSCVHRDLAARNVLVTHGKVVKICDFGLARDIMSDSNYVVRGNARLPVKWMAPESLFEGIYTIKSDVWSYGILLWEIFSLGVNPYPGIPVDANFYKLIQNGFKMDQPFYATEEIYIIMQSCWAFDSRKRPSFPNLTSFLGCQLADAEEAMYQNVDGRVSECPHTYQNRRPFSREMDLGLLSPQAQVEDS
In short: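 Substrate peptide phosphorylation detected by time-resolved fluorescence after a 30 min kinase reaction at 25° C with 50 μM ATP (final). Beforehand, compound and FLT3 (WT, 1.2 μg) stood 15 min at 25° C in HEPES buffer pH 7.5 containing MgCl2, NaCl, BSA and DTT.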

MV4-11 cells = experiment: Leukemia cell proliferation inhibition test (ATPlite), MV4-11; type: cell-based; conditions: Homo sapiens, read-out: MV4-11 cell proliferation inhibition effect
In short: (§1)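 Proliferation inhibition is quantified from total cellular ATP, measured by luciferase luminescence, after cells grow with compound for 72 hours. The GI50 is the concentration giving half the signal of the 0.1% DMSO control, fitted to a sigmoid curve from duplicate points.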

Molm-13 cells = experiment: Leukemia cell proliferation inhibition test (ATPlite), Molm-13; type: cell-based; conditions: Homo sapiens, read-out: MOLM13 cell proliferation inhibition effect
In short: as §1

[2] = GST-fused human FLT3 (564 to 993 aa), ATP 50 μM
[3] = MV4-11, 72 h, MV4-11, 72 hours culture, ATPlite, GI50 per method
[4] = MOLM-13, 72 h, Molm-13, 72 hours culture, ATPlite, GI50 per method

Row | pIC50 [1, 2] | pIC50 (MV4-11 cells; [3]) | pIC50 (Molm-13 cells; [4]) | pIC50 ([1]; FLT3 (WT)) | pIC50 (MV4-11 cells; MV4-11, MV4-11 cell) | pIC50 (Molm-13 cells; MOLM-13, MOLM13 cell) | Structure (SMILES) | pIC50 (MV4-11 cells; MV4-11, 72 hours culture, ATPlite, GI50 per method) | pIC50 (Molm-13 cells; Molm-13, 72 hours culture, ATPlite, GI50 per method)
1 | 7.00 to 8.00 | 6.00 to 7.00 | 6.00 to 7.00 | – | – | – | CCCNc1nc(Nc2cccc(F)c2)ncc1C#CCCCNC(=O)[C@H](C(C)CC)N(C)C(=O)/C=C/CN(C)C (stereo partly drawn) [Compound 7-12] | – | –
2 | – | – | – | > 8.00 | > 8.00 | > 8.00 | CCCNc1nc(Nc2cnc3[nH]nc(OC)c3c2)ncc1C#CCCCNC(=O)[C@H](C)N(C)C(=O)/C=C/CN(C)C [Compound 22-66] | – | –
3 | – | – | – | > 8.00 | > 8.00 | > 8.00 | CCCNc1nc(Nc2ccc3cn[nH]c3c2)ncc1C#CCCCNC(=O)[C@H](C)N(C)C(=O)/C=C/CN(C)C [Compound 21-53, (S,E)-N-(1-((5-(2-((1H-indazol-6-yl)amino)-4-(propylamino)pyrimidin-5-yl)-4-pentyn-1-yl)amino)-1-oxopropan-2-yl)-4-(dimethylamino)-N-methyl-2-butenamide] | – | –
4 | > 8.00 | 7.00 to 8.00 | 7.00 to 8.00 | – | – | – | C[C@@H](C(=O)NCCCC#Cc1cnc(Nc2ccc(C#N)cc2)nc1N1CCC(F)(F)CC1)N(C)C(=O)/C=C/CN(C)C [Compound 10-43] | – | –
5 | – | – | – | > 8.00 | > 8.00 | > 8.00 | CCCNc1nc(Nc2ccc3c(cnn3C)c2)ncc1C#CCCCNC(=O)[C@@H]1CCCN1C(=O)/C=C/CN(C)C [Compound 22-31, (S,E)-1-(4-(Dimethylamino)-2-butenoyl)-N-(5-(2-((1-methyl-1H-indazol-5-yl)amino)-4-(propylamino)pyrimidin-5-yl)-4-pentyn-1-yl)pyrrolidine-2-carboxamide] | – | –
6 | > 8.00 | > 8.00 | > 8.00 | – | – | – | CCCNc1nc(Nc2ccc3cnn(C)c3c2)ncc1C#CCCCNC(=O)[C@H](C)N(C)C(=O)/C=C/CN(C)C [Compound 21-9] | – | –
7 | > 8.00 | > 8.00 | > 8.00 | – | – | – | CNc1nc(Nc2ccc(F)cc2)ncc1C#CCCCNC(=O)[C@@H]1C[C@H](C)CN1C(=O)/C=C/CN(C)C [Compound 7-92] | – | –
8 | > 8.00 | > 8.00 | > 8.00 | – | – | – | CNc1nc(Nc2ccc(F)cc2)ncc1C#CCCCNC(=O)[C@@H]1C[C@@H](O)CN1C(=O)/C=C/CN(C)C [Compound 7-85] | – | –

Row | Structure (SMILES) | pIC50 [1, 2] | pIC50 (MV4-11 cells; [3]) | pIC50 (Molm-13 cells; [4]) | pIC50 ([1]; FLT3 (WT)) | pIC50 (MV4-11 cells; MV4-11, MV4-11 cell) | pIC50 (Molm-13 cells; MOLM-13, MOLM13 cell) | pIC50 (MV4-11 cells; MV4-11, 72 hours culture, ATPlite, GI50 per method) | pIC50 (Molm-13 cells; Molm-13, 72 hours culture, ATPlite, GI50 per method)
9 | C=CC(=O)NCC(=O)Nc1cccc(NC(=O)c2cnc(NCCc3ccncc3)nc2NCCC)c1 [Compound 2-1, N-(3-(2-(acrylylamido)acetamido)phenyl)-4-(propylamino)-2-((2-(pyridin-4-yl)ethyl)amino)pyrimidine-5-carboxamide] | > 8.00 | – | – | – | – | – | 7.00 to 8.00 | 7.00 to 8.00
